Key:
[1] = test system: integrin mediated tension in NIH/3T3 cells; experiment: Dose-dependent inhibition of integrin mediated tension quantified by MCR; assay type: cell-based; conditions: NIH/3T3 cells pretreated 15 min with blebbistatin (10 nm-10 mm as printed), 1 h on 12 pN duplexes
Description: The non-muscle myosin II inhibitor blebbistatin, which diminishes myosin contractility and thus reduces forces transmitted by focal adhesions, was investigated. NIH/3T3 cells were pretreated with a range of blebbistatin concentrations (10 nm-[…]) for 15 min. The cells onto the surface were incubated with the 12 pN duplexes for 1 h, which was then followed by MCR readout. […] The MCR signal is a direct readout of integrin tension, measuring the dose-dependent dissipation of actomyosin contractile forces.
Cells were incubated with the cRGDfK-labelled duplex surfaces in DMEM for 1 h to promote cell adhesion. Surfaces were then washed with 0.1×SSC. Subsequently, surfaces were incubated in 1× CutSmart® buffer (20 mM Tris-acetate, 10 mM Mg(OAc)2, 50 mM KOAc, 100 μg/mL BSA, pH 7.9) with 100 nM circular template and 1 U/μL T4 ligase at 37° C. for 2 h to ensure complete ligation. Then, 250 μM dNTPs and 0.1 U/μL Phi 29 polymerase were added to the solutions and mixed well. The surfaces were incubated at 37° C. for 90 min to allow for rolling circle amplification. […] Finally, the surface was incubated with 100 nM Cy3B-FISH probe in hybridization buffer (0.5 M NaCl, 20 mM Tris-HCl, 20 mM EDTA, and 0.01% Tween, pH=7.4) at 37° C. for 30 min, rinsed with three washes of 0.1×TNT/0.1% SDS and subjected to fluorescence imaging. […]

NIH/3T3 cells = experiment: Brightfield imaging and F-actin staining of drug treated cells; assay type: cell-based

## Cc1ccc2c(c1)C(=O)C1(O)CCN(c3ccccc3)C1=N2 (stereo not drawn) [blebbistatin]
[1]
  MCR signal: dose-dependent relationship
NIH/3T3 cells; highest blebbistatin doses
  F-actin staining: more disorganized and shorter actin filaments
NIH/3T3 cells; increasing drug dose
  cell shape by brightfield imaging: cells become more rounded with increasing drug dose

— patent publication US10900069B2, “Devices and methods useful for detecting mechanical forces of ligand receptor interactions” (Emory University, priority 2016, dated 2021)
